Reference: US11279733B2, “Peptide antibiotics” (priority 2017, dated 2022)
≈ marks a conversion by molar mass, not a printed value. Where two headings read alike, the source gives them in different places. Positions of bridges follow the written chain, without caps; N, C: chain ends. Non-standard residues stand in square brackets, D forms with d. Residues, ends and D or L forms follow the SMILES beside them. *: point of attachment. Decanoyl(3R-OH) = CCCCCCC[C@@H](O)CC(=O)*; X7 = CCC(C)CCCCC(O)CC(=O)*; dOrn = NCCC[C@@H](N)C(=O)O; dDab = NCC[C@@H](N)C(=O)O; X2 = CCC(C)CCC(O)CC(=O)*; dDap = NC[C@@H](N)C(=O)O; Dab = NCC[C@H](N)C(=O)O; X5 = O=C(CCCCCCCO)*

Columns and labels:
A. baumannii ATCC 19606 = test system: A. baumannii ATCC 19606
Procedure, shortened: (§1)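 Mid-log cultures grown in Mueller Hinton broth at 37° C were tested by 2-fold broth microdilution at 5×10^5 CFU/mL final. Compounds were dissolved in water and tested over a final range of 32 to 0.015 μg/mL.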

A. baumannii GN_093 PmxR = test system: A. baumannii GN_093 PmxR
Procedure, shortened: as §1

E. coli ATCC 25922 = test system: E. coli ATCC 25922
Procedure, shortened: as §1

K. pneumoniae ATCC 13883 = test system: K. pneumoniae ATCC 13883
Procedure, shortened: as §1

[1] = test system: K. pneumoniae ATCC 700603, MDR
Procedure, shortened: as §1

[2] = test system: K. pneumoniae ATCC BAA-2146, NDM-1 pos
Procedure, shortened: as §1

[3] = test system: K. pneumoniae GN_102 PmxR
Procedure, shortened: as §1

[4] = test system: K. pneumoniae GN_106, PmxR
Procedure, shortened: as §1

P. aeruginosa ATCC 27853 = test system: P. aeruginosa ATCC 27853
Procedure, shortened: as §1

[5] = test system: P. aeruginosa GN_043, PmxR
Procedure, shortened: as §1

[6] = test system: P. aeruginosa GN_105, PmxR
Procedure, shortened: as §1

[7] = test system: S. aureus ATCC 25923, MSSA
Procedure, shortened: as §1

in vitro [8] = conditions: human
Procedure, shortened: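 Viability is measured by resazurin reduction (5 μM, 2 h, 37 °C) after cells seeded at 4000 per well are treated with compound for 24 h.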

in vitro [9] = conditions: human; remark: listed apart in the source
Procedure, shortened: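 HK2 cells were seeded at 2000 per well in DMEM/F12 with 10% FBS and left to attach for 24 h at 37 °C, 5% CO2. They were then exposed for 24 h to 3-fold peptide dilutions starting from 600 μM solutions in quadruplicate. LDH release was read at 450 nm, and CC50 was fitted from dose-response curves.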

in vitro [10] = conditions: human; remark: listed apart in the source
Experimental: Cytotoxicity of the synthesised peptides was evaluated by comparison with commercially available colistin (polymyxin E), polymyxin B (Sigma chemical Co., St. Louis, Mo., U.S.A.) and synthetic octapeptin C4 by conducting lactate dehydrogenase (LDH) assay. CC50 values calculated based on curve fitting of dose dependent inhibition of cell growth represented the cytotoxicity of the peptide. Human kidney 2 (HK2) cells were seeded as 2000 cells per well in a 384 well cell culture plate in a final volume of 20 μL in DMEM/F12 medium (Invitrogen #11330057), in which 10% of FBS was added. Cells were incubated for 24 hours at 37° C., 5% CO2 to allow cells to attach to the plates. Similar conditions were employed for HEK293 and HepG2 cytotoxicity assays.
Cytotoxicity to HEK293 and HepG2 cells was determined using the resazurin assay (McMillian, M. K.; Li, L.; Parker, J. B.; Patel, L.; Zhong, Z.; Gunnett, J. W.; Powers, W. J.; Johnson, M. D. An improved resazurin-based cytotoxicity assay for hepatic cells; Cell Biol. Toxicol. 2002, 18, 157-173; O'Brien, J.; Wilson, I.; Orton, T.; Pognan, F. Investigation of the Alamar Blue (resazurin) fluorescent dye for the assessment of mammalian cell cytotoxicity. Eur. J. Biochem. 2000, 267, 5421-5426). In brief, HEK293 and HepG2 cells were seeded at 4000 cells/well in black-wall, clear-bottom 384-well plates (Corning, Australia) and incubated for 24 h at 37° C., 5% CO2. Compounds were then added into each well. After 24 h incubation, 5 μM resazurin was added per well and incubated at 37° C. for 2 h. Fluorescence intensity was then read using a Polarstar Omega with excitation/emission 560/590. The data was then analyzed using GraphPad Prism 6 software. CC50 values were determined using GraphPad Prism 6 software (Inc. La Jolla, Calif.).

Row | Compound | MIC A. baumannii ATCC 19606 (A. baumannii ATCC 19606; ATCC 19606) [µg/mL] | MIC A. baumannii GN_093 PmxR (A. baumannii GN_093 PmxR; GN 093 PmxR) [µg/mL] | MIC E. coli ATCC 25922 (E. coli ATCC 25922; ATCC 25922) [µg/mL] | MIC K. pneumoniae ATCC 13883 (K. pneumoniae ATCC 13883; ATCC 13883) [µg/mL] | MIC K. pneumoniae ATCC 700603, MDR ([1]; ATCC 700603) [µg/mL] | MIC K. pneumoniae ATCC BAA-2146, NDM-1 pos ([2]; ATCC BAA-2146) [µg/mL] | MIC K. pneumoniae GN_102 PmxR ([3]; GN 102 PmxR) [µg/mL] | MIC K. pneumoniae GN_106, PmxR ([4]; GN 106, PmxR) [µg/mL] | MIC P. aeruginosa ATCC 27853 (P. aeruginosa ATCC 27853; ATCC 27853) [µg/mL] | MIC P. aeruginosa GN_043, PmxR ([5]; P. aeruginosa GN_043, PmxR) [µg/mL] | MIC P. aeruginosa GN_105, PmxR ([6]; GN 105, PmxR) [µg/mL] | MIC S. aureus ATCC 25923, MSSA ([7]; ATCC 25923) [µg/mL] | CC50 at 24 h (in vitro [8]) [µM] | CC50 at 24 h (in vitro [9]) [µM] | CC50 at 24 h (in vitro [10]) [µM] | further results
1 | CCCCCCC[C@@H](O)CC(=O)N[C@@H](CCN)C(=O)N[C@H]1CCNC(=O)[C@H](CC(C)C)NC(=O)[C@H](CCN)NC(=O)[C@H](CCN)NC(=O)[C@H](C)NC(=O)[C@@H](Cc2ccccc2)NC(=O)[C@H](CCN)NC1=O [compound 5563, 3(R)OH-nC9CO-L-Dab-cyc[L-Dab-L-Dab-D-Phe-L-Ala-L-Dab-L-Dab-L-Leu]] ({Decanoyl(3R-OH)}-[Dab][Dab][Dab][dF]A[Dab][Dab]L; lactam 2-C) | >32 | >32 | 32 (≈ 31.9 µM) | >32 | 16 (≈ 16 µM) | 16 (≈ 16 µM) | 32 (≈ 31.9 µM) | 32 (≈ 31.9 µM) | 2 (≈ 2 µM) | >32 | 32 (≈ 31.9 µM) | >32 | > 300 | 158 | > 300 | 
2 | CCC(C)CCCCC(O)CC(=O)N[C@@H](CCN)C(=O)N[C@H]1CCNC(=O)[C@H](CC(C)C)NC(=O)[C@H](CCN)NC(=O)[C@H](CCN)NC(=O)[C@H](CC(C)C)NC(=O)[C@@H](Cc2ccccc2)NC(=O)[C@H](CCN)NC1=O (stereo partly drawn) [compound 5567, nC7(8-Me)CH(OH)CH2CO-L-Dab-cyc[L-Dab-L-Dab-D-Phe-L-Leu-L-Dab-L-Dab-L-Leu]] (X7-[Dab][Dab][Dab][dF]L[Dab][Dab]L; lactam 2-C) |  |  |  |  |  |  |  |  |  |  |  |  | 292 | 54 | 150 | MIC, A. baumannii ATCC 19606 (A. baumannii ATCC 19606; Table 6): 8 µg/mL (≈ 7.56 µM); MIC A. baumannii GN_093 PmxR (A. baumannii GN_093 PmxR; Table 6, polymyxin-resistant): 16 µg/mL (≈ 15.1 µM); MIC, E. coli ATCC 25922 (E. coli ATCC 25922; Table 6): 8 µg/mL (≈ 7.56 µM); MIC, K. pneumoniae ATCC 13883 (K. pneumoniae ATCC 13883; Table 6): 8 µg/mL (≈ 7.56 µM); MIC, K. pneumoniae ATCC 700603, MDR ([1]; Table 6): 8 µg/mL (≈ 7.56 µM); MIC, K. pneumoniae ATCC BAA-2146, NDM-1 pos ([2]; Table 6): 8 µg/mL (≈ 7.56 µM); MIC K. pneumoniae GN_102 PmxR ([3]; Table 6, polymyxin-resistant): 8 µg/mL (≈ 7.56 µM); MIC K. pneumoniae GN_106, PmxR ([4]; Table 6, polymyxin-resistant): 4 µg/mL (≈ 3.78 µM); MIC, P. aeruginosa ATCC 27853 (P. aeruginosa ATCC 27853; Table 6): 2 µg/mL (≈ 1.89 µM); MIC P. aeruginosa GN_043, PmxR ([5]; Table 6, polymyxin-resistant): 2 µg/mL (≈ 1.89 µM); MIC P. aeruginosa GN_105, PmxR ([6]; Table 6, polymyxin-resistant): 2 µg/mL (≈ 1.89 µM); MIC, S. aureus ATCC 25923, MSSA ([7]; Table 6): 32 µg/mL (≈ 30.2 µM)
3 | CCC(C)CCC(O)CC(=O)N[C@H](CCN)C(=O)N[C@H]1CCNC(=O)[C@H](CC(C)C)NC(=O)[C@H](CCN)NC(=O)[C@H](CCN)NC(=O)[C@H](Cc2ccccc2)NC(=O)[C@H](CC(C)C)NC(=O)[C@H](CCN)NC1=O (stereo partly drawn) [compound 6371, nC5(6-Me)CH(OH)CH2CO-D-Dab-cyc[L-Dab-L-Dab-L-Leu-L-Phe-L-Dab-L-Dab-L-Leu]] (X2-[dDab][Dab][Dab]LF[Dab][Dab]L; lactam 2-C) | >32 | >32 | >32 | >32 | >32 | >32 | >32 | >32 | 32 (≈ 31.1 µM) | >32 | >32 | >32 | > 300 | > 300 | > 300 | 
4 | CCCCCCC[C@@H](O)CC(=O)N[C@H](CN)C(=O)N[C@H]1CCNC(=O)[C@H](CC(C)C)NC(=O)[C@H](CCN)NC(=O)[C@H](CCN)NC(=O)[C@H](Cc2ccccc2)NC(=O)[C@@H](CC(C)C)NC(=O)[C@H](CCN)NC1=O [compound 6427, 3(R)OH-nC9CO-D-Dap-cyc[L-Dab-L-Dab-D-Leu-L-Phe-L-Dab-L-Dab-L-Leu]] ({Decanoyl(3R-OH)}-[dDap][Dab][Dab][dL]F[Dab][Dab]L; lactam 2-C) | 8 (≈ 7.76 µM) | 16 (≈ 15.5 µM) | 8 (≈ 7.76 µM) | 8 (≈ 7.76 µM) | 8 (≈ 7.76 µM) | 8 (≈ 7.76 µM) | 4 (≈ 3.88 µM) | 4 (≈ 3.88 µM) | 4 (≈ 3.88 µM) | 4 (≈ 3.88 µM) | 2 (≈ 1.94 µM) | 32 (≈ 31.1 µM) | > 300 | 123 | > 300 | 
5 | CCCCCCC[C@@H](O)CC(=O)N[C@H](CCCN)C(=O)N[C@H]1CCNC(=O)[C@H](CC(C)C)NC(=O)[C@H](CCN)NC(=O)[C@H](CCN)NC(=O)[C@H](Cc2ccccc2)NC(=O)[C@@H](CC(C)C)NC(=O)[C@H](CCN)NC1=O [compound 6428, 3(R)OH-nC9CO-D-Orn-cyc[L-Dab-L-Dab-D-Leu-L-Phe-L-Dab-L-Dab-L-Leu]] ({Decanoyl(3R-OH)}-[dOrn][Dab][Dab][dL]F[Dab][Dab]L; lactam 2-C) | 32 (≈ 30.2 µM) | 16 (≈ 15.1 µM) | 16 (≈ 15.1 µM) | 16 (≈ 15.1 µM) | 8 (≈ 7.56 µM) | 16 (≈ 15.1 µM) | 2 (≈ 1.89 µM) | 4 (≈ 3.78 µM) | 4 (≈ 3.78 µM) | 4 (≈ 3.78 µM) | 4 (≈ 3.78 µM) | 32 (≈ 30.2 µM) | > 300 | 137 | > 300 | 
6 | CC(C)C[C@@H]1NC(=O)[C@H](CCN)NC(=O)[C@H](CCN)NC(=O)[C@H](Cc2ccccc2)NC(=O)[C@@H](CC(C)C)NC(=O)[C@H](CCN)NC(=O)[C@@H](NC(=O)[C@@H](CCN)NC(=O)CCCCCCCO)CCNC1=O [compound 6514, 8OH-nC7CO-D-Dab-cyc[L-Dab-L-Dab-D-Leu-L-Phe-L-Dab-L-Dab-L-Leu]] (X5-[dDab][Dab][Dab][dL]F[Dab][Dab]L; lactam 2-C) |  |  |  |  |  |  |  |  |  | 4 (≈ 3.94 µM) |  |  | > 300 | > 300 | > 300 | MIC A. baumannii ATCC 19606 (A. baumannii ATCC 19606; A. baumannii ATCC 19606): >32 µg/mL; MIC A. baumannii GN_093 PmxR (A. baumannii GN_093 PmxR; A. baumannii GN_093 PmxR): >32 µg/mL; MIC E. coli ATCC 25922 (E. coli ATCC 25922; E. coli ATCC 25922): >32 µg/mL; MIC K. pneumoniae ATCC 13883 (K. pneumoniae ATCC 13883; K. pneumoniae ATCC 13883): >32 µg/mL; MIC K. pneumoniae ATCC 700603, MDR ([1]; K. pneumoniae ATCC 700603, MDR): >32 µg/mL; MIC K. pneumoniae ATCC BAA-2146, NDM-1 pos ([2]; K. pneumoniae ATCC BAA-2146, NDM-1 pos): >32 µg/mL; MIC K. pneumoniae GN_102 PmxR ([3]; K. pneumoniae GN_102 PmxR): >32 µg/mL; MIC K. pneumoniae GN_106, PmxR ([4]; K. pneumoniae GN_106, PmxR): >32 µg/mL; MIC P. aeruginosa ATCC 27853 (P. aeruginosa ATCC 27853; P. aeruginosa ATCC 27853): 8 µg/mL (≈ 7.87 µM); MIC P. aeruginosa GN_105, PmxR ([6]; P. aeruginosa GN_105, PmxR): >32 µg/mL; MIC S. aureus ATCC 25923, MSSA ([7]; S. aureus ATCC 25923, MSSA): >32 µg/mL
